According to patent publication US11078250B2, “High-activity long-acting hypoglycemic fusion protein as well as preparation method and medical application thereof” (China Pharmaceutical University, priority 2016, dated 2021):
Values joined by “and” are separate entries in the source; they are usually repeats but may differ in a detail not shown here. Identical values can stand only once.

Assays:
[1] = system: type II diabetic mice C57BL/KsJ-db/db (BKS.Cg-Dock7m+/+Leprdb/JNju); assay: Acute hypoglycemic test in type II diabetic model mice; type: in vivo, mouse
Protocol: (§1) 50 six-week-old type II diabetic mice C57BL/KsJ-db/db (namely, S.Cg-Dock7^m+/+Lepr^db/JNju mouse) and 10 control mice C57BLKS/JNju are purchased from Nanjing Biomedical Research Institute of Nanjing University (certificate number: 201602819, and license number: SCXK (Su) 2015-0001). The mouse are fed in a SPF-grade animal house with a humidity of 40-60% at room temperature of 25° C. for 12 h each under light and dark conditions, and an experiment is carried out after adaptive feeding for one week. Blood glucose concentration is measured using a Roche Accu-Chek® Performa glucometer and blood glucose test paper. Experiment grouping and administration modes are seen in Table 1.
Blood glucose levels of each group of mouse are detected before administration. As shown in Table 2 and FIG. 7, blood glucose levels of a model group, Ex-4, EX-mhIgG1Fc and EX-L21K-mhIgG1Fc (5-20 nmol/kg) are respectively 24±0.81, 24.53±1.20, 23.31±1.05, 23.04±1.23, 22.41±1.51 and 24.99±1.43 mM. There is a significant difference (P<0.0001) compared with 8.58±0.25 mM in a normal control group. […] Moreover, there is no difference between the drug groups and the model group, and subsequent experiments can be carried out.
After mouse are administrated, blood glucose levels after administration for 1, 2, 4, 8, 12, 24, 36, 48, 60, 72, 96 and 120 h are continuously monitored. […] The blood glucoses of mouse in Ex-4 group are gradually raised back to a level before administration, and the blood glucoses of mouse in EX-mhIgG1Fc group are gradually raised back to a level before administration after administration for 48 h. The hypoglycemic effects of various dosage group of EX-L21K-mhIgG1Fc are more durable, wherein, the hypoglycemic effect of 5 nmol/kg EX-L21K-mhIgG1Fc lasts until 72 h after administration (P<0.01 vs model group), the hypoglycemic effects of 10 nmol/kg EX-L21K-mhIgG1Fc (P<0.01 vs model group) and 20 nmol/kg EX-L21K-mhIgG1Fc (P<0.0001 vs model group) are still present after administration for 96 h.
Compared with Ex-4, AUCs0-24 h of various groups of EX-mhIgG1Fc and EX-L21K-mhIgG1Fc (5-20 nmol/kg) drugs has no significant difference.

[2] = system: type II diabetic mice C57BL/KsJ-db/db (BKS.Cg-Dock7m+/+Leprdb/JNju); assay: Intraperitoneal glucose tolerance test (IPGTT); type: in vivo, mouse; details: for IPGTT glucose AUC0-180 min: n=8, mean ± SEM; for Fasting blood glucose vs model group: fasted 18 h, Ex-4 and EX-mhIgG1Fc 10 nmol/kg, EX-L21K-mhIgG1Fc 5-20 nmol/kg, ip, P<0.0001
Protocol: as §1
Various groups of animals are fasted overnight for 18 h before test. Firstly, normal saline, Ex-4, EX-mhIgG1Fc and EX-L21K-mhIgG1Fc are respectively intraperitoneally injected. After administration for 2 h, 1.5 g/kg glucose is intraperitoneally injected to each mouse, blood is taken via caudal vein, and blood glucose concentrations in −120, 0, 15, 30, 45, 60, 90, 120 and 180 min are recorded. During the test, animals are normally dieted and supplied with water.
Area under the curve is further applied for analysis.

[3] = cited from earlier work
[4] = 0 h (before administration), 10 nmol/kg ip, n=8, mean ± SEM
[5] = 1 h after administration, 10 nmol/kg ip
[6] = 2 h after administration, 10 nmol/kg ip
[7] = 4 h after administration, 10 nmol/kg ip
[8] = 8 h after administration, 10 nmol/kg ip
[9] = 12 h after administration, 10 nmol/kg ip
[10] = 24 h after administration, 10 nmol/kg ip
[11] = 36 h after administration, 10 nmol/kg ip
[12] = 48 h after administration, 10 nmol/kg ip
[13] = 60 h after administration, 10 nmol/kg ip
[14] = 72 h after administration, 10 nmol/kg ip
[15] = 96 h after administration, 10 nmol/kg ip
[16] = 120 h after administration, 10 nmol/kg ip
[17] = Ex-4 and EX-mhIgG1Fc 10 nmol/kg, EX-L21K-mhIgG1Fc 5-20 nmol/kg, ip
[18] = 10 nmol/kg ip 120 min before 1.5 g/kg glucose ip

**Q.** Which results are given for “EX-L21K-mhIgG1Fc: fusion protein of Exendin-4 mutant EX-L21K, Gly-rich linker peptide, optimally mutated human IgG1 hinge region and constant regions CH2 and CH3; SEQ ID NO: 11”?
**A.** Blood glucose ([1]; 0 h (before administration), 5 nmol/kg ip, n=8, mean ± SEM): 23.04 ± 1.23 mM and 23.04 mM; Blood glucose [1, 4]: 22.41 ± 1.51 mM and 22.41 mM; Blood glucose ([1]; 0 h (before administration), 20 nmol/kg ip, n=8, mean ± SEM): 24.99 ± 1.43 mM and 24.99 mM; Time after administration to which hypoglycemic effect lasts ([1]; 5 nmol/kg ip, P<0.01 vs model group): 72 h; Blood glucose AUC0-24 h ([1]; 5 nmol/kg ip, n=8, mean ± SEM): 296.69 ± 34.39 mM·h; Time after administration to which hypoglycemic effect lasts ([1]; 10 nmol/kg ip): ≥ 96 h; Blood glucose AUC0-24 h ([1]; 10 nmol/kg ip, n=8, mean ± SEM): 237.34 ± 16.87 mM·h; Time after administration to which hypoglycemic effect lasts ([1]; 20 nmol/kg ip, P<0.0001 vs model group): ≥ 96 h; Blood glucose AUC0-24 h ([1]; 20 nmol/kg ip, n=8, mean ± SEM): 230.80 ± 20.09 mM·h; Time after administration to which hypoglycemic effect lasts ([1]; 5-20 nmol/kg ip): 96 h; Blood glucose ([1]; 1 h after administration, 5 nmol/kg ip): 15.18 mM; Blood glucose [1, 5]: 15.2 mM; Blood glucose ([1]; 1 h after administration, 20 nmol/kg ip): 14.98 mM; Blood glucose ([1]; 2 h after administration, 5 nmol/kg ip): 11.28 mM; Blood glucose [1, 6]: 14.3 mM; Blood glucose ([1]; 2 h after administration, 20 nmol/kg ip): 12.46 mM; Blood glucose ([1]; 4 h after administration, 5 nmol/kg ip): 9.16 mM; Blood glucose [1, 7]: 8.48 mM; Blood glucose ([1]; 4 h after administration, 20 nmol/kg ip): 9.54 mM; Blood glucose ([1]; 8 h after administration, 5 nmol/kg ip): 9.91 mM; Blood glucose [1, 8]: 8.01 mM; Blood glucose ([1]; 8 h after administration, 20 nmol/kg ip): 8.73 mM; Blood glucose ([1]; 12 h after administration, 5 nmol/kg ip): 13.06 mM; Blood glucose [1, 9]: 10.13 mM; Blood glucose ([1]; 12 h after administration, 20 nmol/kg ip): 53 mM; Blood glucose ([1]; 24 h after administration, 5 nmol/kg ip): 13.58 mM; Blood glucose [1, 10]: 8.5 mM; Blood glucose ([1]; 24 h after administration, 20 nmol/kg ip): 7.49 mM; Blood glucose ([1]; 36 h after administration, 5 nmol/kg ip): 17.34 mM; Blood glucose [1, 11]: 12.9 mM; Blood glucose ([1]; 36 h after administration, 20 nmol/kg ip): 11.95 mM; Blood glucose ([1]; 48 h after administration, 5 nmol/kg ip): 16.46 mM; Blood glucose [1, 12]: 12.96 mM; Blood glucose ([1]; 48 h after administration, 20 nmol/kg ip): 12.2 mM; Blood glucose ([1]; 60 h after administration, 5 nmol/kg ip): 22.39 mM; Blood glucose [1, 13]: 21.36 mM; Blood glucose ([1]; 60 h after administration, 20 nmol/kg ip): 21.5 mM; Blood glucose ([1]; 72 h after administration, 5 nmol/kg ip): 18.85 mM; Blood glucose [1, 14]: 17.4 mM; Blood glucose ([1]; 72 h after administration, 20 nmol/kg ip): 14.1 mM; Blood glucose ([1]; 96 h after administration, 5 nmol/kg ip): 18.71 mM; Blood glucose [1, 15]: 17.33 mM; Blood glucose ([1]; 96 h after administration, 20 nmol/kg ip): 14.46 mM; Blood glucose ([1]; 120 h after administration, 5 nmol/kg ip): 23.35 mM; Blood glucose [1, 16]: 22.96 mM; Blood glucose ([1]; 120 h after administration, 20 nmol/kg ip): 22.76 mM; Blood glucose AUC0-72 h compared with model group [1, 17]: significantly reduced; Blood glucose AUC0-120 h compared with model group [1, 17]: significantly reduced; IPGTT glucose AUC0-180 min ([2]; 5 nmol/kg ip 120 min before 1.5 g/kg glucose ip): 2338 ± 181.2 mM·min; IPGTT glucose AUC0-180 min [2, 18]: 2035 ± 169.6 mM·min; IPGTT glucose AUC0-180 min ([2]; 20 nmol/kg ip 120 min before 1.5 g/kg glucose ip): 2082 ± 119.9 mM·min; Fasting blood glucose vs model group [2]: significantly reduced

**Q.** With Exendin-4 [Ex-4, reference compound] as the substance, how does the Blood glucose [1, 4] read?
**A.** 24.53 ± 1.20 mM and 24.53 mM

**Q.** What about the “Blood glucose AUC0-24 h” value ([1]; 10 nmol/kg ip, n=8, mean ± SEM) of the same substance?
**A.** 374.46 ± 6.20 mM·h

**Q.** What about the Blood glucose [1, 5] of the same substance?
**A.** 10.63 mM

**Q.** What about the Blood glucose [1, 6] of the same substance?
**A.** 10.79 mM

**Q.** And the Blood glucose [1, 7]?
**A.** 10.71 mM

**Q.** And the Blood glucose [1, 8]?
**A.** 15.31 mM

**Q.** What about the Blood glucose [1, 9] of the same substance?
**A.** 24.43 mM

**Q.** What about the Blood glucose [1, 10] of the same substance?
**A.** 20.48 mM

**Q.** And the Blood glucose [1, 11]?
**A.** 26.59 mM

**Q.** What about the Blood glucose [1, 12] of the same substance?
**A.** 24.76 mM

**Q.** And the Blood glucose [1, 13]?
**A.** 27.19 mM

**Q.** And the Blood glucose [1, 14]?
**A.** 25.34 mM

**Q.** What about the Blood glucose [1, 15] of the same substance?
**A.** 23.68 mM

**Q.** And the Blood glucose [1, 16]?
**A.** 24.83 mM

**Q.** And the “Blood glucose AUC0-72 h compared with model group” value [1, 17]?
**A.** no significant change

**Q.** And the “Blood glucose AUC0-120 h compared with model group” value [1, 17]?
**A.** no significant change

**Q.** And the “Time after administration at which hypoglycemic effect is exhibited” value [1, 17]?
**A.** 1 h

**Q.** What about the in-vivo half-life period [3] of the same substance?
**A.** 3.3˜4 hours

**Q.** What about the “IPGTT glucose AUC0-180 min” value [2, 18] of the same substance?
**A.** 2058 ± 109.5 mM·min

**Q.** What about the “Fasting blood glucose vs model group” value [2] of the same substance?
**A.** significantly reduced
